From BigSolDB 2.1

Nc1cncc(Cl)n1
solubility (mole fraction)
Details	in DMF	in acetone	in acetonitrile	in ethanol	in ethylene glycol	in isopropanol	in methanol	in n-propanol	in propylene glycol	in water
278.15 K	0.00915	0.0117	0.00984	0.00159	0.000717	0.00421	0.00114	0.00494	0.000917	3.62e-05
283.15 K	0.0111	0.0141	0.0119	0.0019	0.000905	0.00503	0.00135	0.00588	0.00115	4.42e-05
288.15 K	0.0135	0.0167	0.0143	0.00226	0.00113	0.00608	0.00164	0.00709	0.00139	5.21e-05
293.15 K	0.0162	0.0198	0.0172	0.00272	0.00141	0.00737	0.00196	0.00858	0.00171	6.29e-05
298.15 K	0.0194	0.0231	0.0209	0.00323	0.00172	0.00874	0.00244	0.0105	0.00204	7.43e-05
303.15 K	0.023	0.0269	0.0248	0.00384	0.00204	0.0104	0.00293	0.0127	0.00237	8.97e-05
308.15 K	0.0271	0.0314	0.0295	0.00453	0.00239	0.0122	0.00347	0.0152	0.00281	0.000105
313.15 K	0.0322	0.0371	0.0352	0.0053	0.00281	0.0146	0.00415	0.0181	0.00327	0.000123
318.15 K	0.0378	0.0431	0.041	0.00624	0.00325	0.017	0.00489	0.0211	0.00379	0.000143
323.15 K	0.0442	0.0505	0.0488	0.00756	0.00377	0.0198	0.00575	0.0246	0.00448	0.000168
